What was measured:
[1] = Colorimetric cytotoxicity test, HEK293FT; type: cell-based; conditions: human, HEK293FT cells, intrinsic cytotoxicity
Text: (§1) The low intrinsic cytotoxicity of the additional drug component in the clinically used anticancer cocktails with traditional drugs is very important for treatment. This approach in chemotherapy can reduce the potential resulting toxic load on the body in the case of a combined action of these inhibitors on the activity of several targets. […] The effects of the tested compounds on cell survival are shown on Figure 4 and the CC50 values for three cell lines are shown in Table 1. The intrinsic cytotoxicity of a number of the studied compounds is quite high, namely, they have close IC50 values against the TDP1 and CC50 values on one or several studied cell lines. Most of the compounds generally were more toxic for the HEK293FT and HeLa cell lines than for the HEK293A cell line (Table 1 and Figure 4). The cytotoxicity of the three leader compounds, 7g, 10a, and 7h, was quite high. […] Compound 10b was one of the least toxic among the ten tested compounds.
(§2) Cytotoxicity of the compounds was examined against human cell lines HEK293A (human embryonic kidney)—WT, TDP1 deficient (Tdp1-/-), PARP1 deficient (PARP1-/-), and HeLa (cervical cancer) using an EZ4U colorimetric test (Biomedica, Vienna, Austria). The HEK293A cell line was obtained from Thermo Fisher Scientific (Waltham, MA, USA), and the HeLa cell line was obtained from the Russian Cell Culture Collection (RCCC) Institute of Cytology RAS, St. Petersburg, Russia. The cells were grown in DMEM/F12 medium (Gibco, Thermo Fisher Scientific, Waltham, MA, USA), with 1x GlutaMAX (Gibco, Thermo Fisher Scientific, Waltham, MA, USA), 50 IU/mL penicillin, 50 μg/mL streptomycin (MP Biomedicals), and in the presence of 10% fetal bovine serum (Biolot, Saint-Petersburg, Russia) in a 5% CO2 atmosphere. Cells were grown in the presence of 1% DMSO in the control wells. After the formation of a 30–50% monolayer, the tested compounds were added to the medium, and the cell culture was monitored for 3 days. The values were normalized to their own control in each case. At least three independent experiments were carried out. The 50% cytotoxic concentration (CC50) was defined as the compound concentration that reduced the cell viability by 50% when compared to the untreated controls. The compound concentration that caused 50% cell growth inhibition was determined using OriginPro 8.6.0 software (OriginLab, Northampton, MA, USA). The measurements were carried out in three independent experiments.

TDP1 [2] = target: T1, TDP1 (Homo sapiens, UniProt Q9NUW8); test: Real-time fluorescence assay of TDP1 activity; type: biochemical; conditions: real-time fluorescent assay, 1.5 nM TDP1, 50 nM oligonucleotide; read-out: IC50 (TDP1)
T1 construct: made in house; host or cells: E. coli
Text: We tested UA and all 14 newly synthesized UA derivatives for their TDP1 inhibitory properties by measuring their IC50 values using a real-time fluorescent assay. […] Compounds 10a,b are sulfoxide analogs of 7g,h.
Human recombinant tyrosyl-DNA phosphodiesterase 1 (TDP1) and human recombinant poly(ADP-ribose)-polymerase1 (PARP1) were expressed in the E. coli system and purified as described.
(§3) The biosensor (5′-[FAM] AAC GTC AGGGTC TTC C [BHQ]-3′) was synthesized in the Laboratory of Nucleic Acid Chemistry at the Institute of Chemical Biology and Fundamental Medicine (Novosibirsk, Russia) and was used for TDP1 enzyme activity real-time fluorescence detection. The reaction mixture (200 μL) contained a TDP1 reaction buffer (50 mM Tris-HCl, pH 8.0, 50 mM NaCl, and 7 mM β-mercaptoethanol), 50 nM oligonucleotide, varied concentrations of the tested compounds, and purified TDP1 in a final concentration 1.5 nM. The reaction mixtures were incubated at a constant temperature of 26 °C in a POLARstar OPTIMA fluorimeter (BMG LABTECH, GmbH, Ortenberg, Germany). Fluorescence intensity was measured (Ex485/Em520 nm) every 1 min for 10 min. The average values of the half maximal inhibitory concentration (IC50) were determined using an eleven-point concentration response curve and calculated using MARS Data Analysis 2.0 (BMG LABTECH). The 50% inhibitory concentration (IC50) was defined as the concentration of the compound that inhibited 50% of the enzyme activity when compared to the untreated controls. At least three independent experiments were carried out to obtain the IC50 values. To determine the kinetic parameters of the TDP1 enzymatic reaction, the apparent maximum rate of enzymatic reaction (Vmax), Michaelis constant (KM), possible inhibition mechanism, and steady-state kinetic experiments were carried out at 5 fixed concentrations of the substrate, with variation in the inhibitor concentrations. The standard reaction mixtures (200 μL) contained reaction buffer components; 50 nM, 100 nM, 200 nM, 500 nM, or 1000 nM substrate; an inhibitor; and 1.5 nM recombinant human TDP1. The initial kinetic curves were obtained in three independent experiments and statistically processed in OriginPro 8.6.0 (OriginLab, Northampton, MA, USA).

[3] = EZ4U colorimetric cytotoxicity test, HeLa; type: cell-based, human; conditions: human, HeLa cells; intrinsic cytotoxicity, compound alone, 3 days
Text: as §1, §2

[4] = EZ4U colorimetric cytotoxicity test, HEK293A; type: cell-based; conditions: human, HEK293A cells; intrinsic cytotoxicity, 3 days; read-out: HEK293A CC50
Text: as §1, §2

TDP1 [5] = target: T1, TDP1; test: Steady-state kinetics of the TDP1 reaction (Vmax, KM, type of inhibition); type: biochemical; design: Vmax: unit not given here; conditions: for Type of inhibition of TDP1 enzyme reaction: steady-state conditions, fall in both Vmax and KM with increasing inhibitor
Text: The reversible enzyme inhibitors were classified as competitive, uncompetitive, non-competitive, or mixed, depending on the binding of the enzyme, to the enzyme–substrate complex (ES) or to the enzyme–substrate–inhibitor triple complex (ESI). The enzyme could bind the inhibitor at the different steps of catalysis (before or after the substrate) and at the substrate-binding site or another site. The effect of the inhibitor on enzymatic activity can be analyzed using graphical representations of the Michaelis–Menten equation. […] TDP1 has a catalytic pocket with a narrow positively charged cleft where it binds DNA and with a relatively large cleft that contains a mixed charge distribution for the TOP1 fragment binding. It is known that TDP1 hydrolyzes the DNA–TOP1 adducts via two coordinated nucleophilic attacks of two His residues (His263 and His493) with the covalent intermediate complex formation. The enzyme reaction catalyzed by TDP1 could be inhibited in two steps: the first one is the inhibition of the TDP1 binding to the DNA substrate (the nucleophilic attack of His263). The second step is releasing TDP1 from the transition complex (nucleophilic attack by a water molecule activated by His493). Inhibition of the second step prevents the release of the DNA 3′-phosphate product from the DNA–TDP1 complex. Spinocerebellar ataxia with axonal neuropathy (SCAN1) is a neurological disease that is caused by a TDP1 His493Arg mutation. This mutation prevents the second step of hydrolysis of the intermediate complex and the enzyme remains covalently bound to DNA [47]. The uncompetitive inhibitors also prevent the second step of the reaction, stabilizing the enzyme–DNA covalent complex, which can lead to the accumulation of the single-strand breaks in the cell.
as §3
Table S25 Dependence of TDP1 reaction values V max and K M on the concentration of inhibitors
[7g], mM V max Standard Error K M Standard Error
[7h], mM V max Standard Error K M Standard Error
[10a], mM V max Standard Error K M Standard Error
[10b], mM V max Standard Error K M Standard Error

TDP1 [6] = system: TDP1; design: method as in PMID 27933897, PMID 30076000, PMID 31619021, doi:10.1134/S1068162017010125, PMID 30396105; conditions: cited from earlier work
[7] = inhibitor 0.4 mM (so in the source)
[8] = inhibitor 0.8 mM (so in the source)
[9] = inhibitor 1.6 mM (so in the source)
[10] = inhibitor 3.2 mM (so in the source)
[11] = inhibitor 6.4 mM (so in the source)

T1 sequence (Q9NUW8 whole entry): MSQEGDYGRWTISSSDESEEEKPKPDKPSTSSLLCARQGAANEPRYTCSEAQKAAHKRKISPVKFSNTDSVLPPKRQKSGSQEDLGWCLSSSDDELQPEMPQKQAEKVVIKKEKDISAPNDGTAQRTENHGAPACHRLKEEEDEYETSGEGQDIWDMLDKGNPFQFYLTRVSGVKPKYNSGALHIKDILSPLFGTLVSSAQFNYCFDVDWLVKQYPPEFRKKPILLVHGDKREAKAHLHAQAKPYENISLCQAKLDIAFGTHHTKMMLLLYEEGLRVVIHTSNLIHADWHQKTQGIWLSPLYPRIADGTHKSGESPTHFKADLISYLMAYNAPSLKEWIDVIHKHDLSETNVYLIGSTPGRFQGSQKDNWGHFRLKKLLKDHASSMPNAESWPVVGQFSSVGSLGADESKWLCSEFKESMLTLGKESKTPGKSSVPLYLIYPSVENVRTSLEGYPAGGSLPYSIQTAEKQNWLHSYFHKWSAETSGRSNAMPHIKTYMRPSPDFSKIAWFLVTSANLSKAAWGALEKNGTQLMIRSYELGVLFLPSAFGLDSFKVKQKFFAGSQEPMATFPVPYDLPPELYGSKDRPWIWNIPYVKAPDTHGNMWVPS

Structure (SMILES): CC(=O)C1=C(O)C=C2Oc3c(C(=O)CSc4nnc(N)s4)c(O)c(C)c(O)c3[C@@]2(C)C1=O [7c, (2R)-4-acetyl-10-{2-[(5-amino-1,3,4-thiadiazol-2-yl)sulfanyl]acetyl}-5,11,13-trihydroxy-2,12-dimethyl-8-oxatricyclo[7.4.0. 0^2,7]trideca-1(13),4,6,9,11-pentaen-3-one]
- CC50 at 3 days [1]: 35 ± 2 µM
- IC50 (TDP1 [2]): 4.3 ± 0.5 µM
- CC50 at 3 days [3]: 33 ± 2 µM
- CC50 at 3 days [4]: > 50 µM

Structure (SMILES): CC(=O)C1=C(O)C=C2Oc3c(C(=O)CSc4nc5ccccc5s4)c(O)c(C)c(O)c3C2(C)C1=O (stereo not shown) [7g]
- CC50 at 3 days [1]: 3 ± 1 µM
- IC50 (TDP1 [2]): 1.7 ± 0.6 µM
- Vmax (TDP1 [5]; [7]): 35.4
- Vmax (TDP1 [5]; [8]): 25.6
- Vmax (TDP1 [5]; [9]): 23.0
- Vmax (TDP1 [5]; [10]): 19.4
- Vmax (TDP1 [5]; [11]): 10.9
- Type of inhibition of TDP1 enzyme reaction (TDP1 [5]): uncompetitive
- CC50 at 3 days [3]: 2 ± 0.6 µM
- CC50 at 3 days [4]: 3.5 ± 0.3 µM

Structure (SMILES): CC(=O)C1=C(O)C=C2Oc3c(C(=O)CSc4nc5ccccc5o4)c(O)c(C)c(O)c3C2(C)C1=O (stereo not shown) [7e]
- CC50 at 3 days [1]: 4.5 ± 1 µM
- IC50 (TDP1 [2]): 3.2 ± 0.5 µM
- CC50 at 3 days [3]: 2.9 ± 0.2 µM
- CC50 at 3 days [4]: 26 ± 2 µM

Structure (SMILES): CC(=O)C1=C(O)C=C2Oc3c(C(=O)CSc4ncccn4)c(O)c(C)c(O)c3[C@@]2(C)C1=O [7j, (2R)-4-acetyl-5,11,13-trihydroxy-2,12-dimethyl-10-[2-(pyrimidin-2-ylsulfanyl)acetyl]-8-oxatricyclo[7.4.0. 0^2,7]trideca-1(13),4,6,9,11-pentaen-3-one]
- IC50 (TDP1 [2]): 16.9 ± 2.4 µM

Structure (SMILES): CC(=O)C1=C(O)C=C2Oc3c(C(=O)C[S+]([O-])c4ccc(Cl)cc4)c(O)c(C)c(O)c3[C@@]2(C)C1=O (stereo partly shown) [10b]
- CC50 at 3 days [1]: 20 ± 3 µM
- Vmax (TDP1 [5]; inhibitor 0.2 mM (so in the source)): 18.7
- Vmax (TDP1 [5]; [7]): 10.7
- Vmax (TDP1 [5]; [8]): 8.5
- Vmax (TDP1 [5]; [9]): 6.3
- Type of inhibition of TDP1 enzyme reaction (TDP1 [5]): uncompetitive
- CC50 at 3 days [3]: 27 ± 2 µM
- CC50 at 3 days [4]: > 50 µM

Structure (SMILES): CC(=O)C1=C(O)C=C2Oc3c(C(=O)CSC4=NCCS4)c(O)c(C)c(O)c3[C@@]2(C)C1=O [7b, (2R)-4-acetyl-10-[2-(4,5-dihydro-1,3-thiazol-2-ylsulfanyl)acetyl]-5,11,13-trihydroxy-2,12-dimethyl-8-oxatricyclo[7.4.0.0^2,7]trideca-1(13),4,6,9,11-pentaen-3-one]
- CC50 at 3 days [1]: 16 ± 5 µM
- IC50 (TDP1 [2]): 4.4 ± 1 µM
- CC50 at 3 days [3]: 11 ± 0.5 µM
- CC50 at 3 days [4]: > 50 µM

Structure (SMILES): CC(=O)C1=C(O)C=C2Oc3c(C(=O)CSc4ncccc4C(=O)O)c(O)c(C)c(O)c3C2(C)C1=O (stereo not shown) [7k]
- IC50 (TDP1 [2]): 19.6 ± 2.8 µM

Structure (SMILES): CC(=O)C1=C(O)C=C2Oc3c(C(=O)CSc4ccc(Cl)cc4)c(O)c(C)c(O)c3C2(C)C1=O (stereo not shown) [7h]
- CC50 at 3 days [1]: 4 ± 1 µM
- IC50 (TDP1 [2]): 2.2 ± 0.5 µM
- Vmax (TDP1 [5]; [7]): 31.0
- Vmax (TDP1 [5]; [8]): 26.7
- Vmax (TDP1 [5]; [9]): 18.5
- Vmax (TDP1 [5]; [10]): 15.3
- Vmax (TDP1 [5]; [11]): 11.2
- Type of inhibition of TDP1 enzyme reaction (TDP1 [5]): uncompetitive
- CC50 at 3 days [3]: 2.5 ± 0.5 µM
- CC50 at 3 days [4]: 10 ± 2 µM

Structure (SMILES): CC(=O)C1=C(O)C=C2Oc3c(C(=O)CSC(=S)N(C)C)c(O)c(C)c(O)c3[C@@]2(C)C1=O [7a, (2R)-4-acetyl-10-{2-[(dimethylcarbamothioyl)sulfanyl]acetyl}-5,11,13-trihydroxy-2,12-dimethyl-8-oxatricyclo [7.4.0.0^2,7]trideca-1(13),4,6,9,11-pentaen-3-one]
- CC50 at 3 days [1]: > 50 µM
- IC50 (TDP1 [2]): 5.4 ± 2.9 µM
- CC50 at 3 days [3]: 13 ± 0.5 µM
- CC50 at 3 days [4]: > 50 µM

Structure (SMILES): CC(=O)C1=C(O)C=C2Oc3c(C(=O)CSc4nnc[nH]4)c(O)c(C)c(O)c3C2(C)C1=O (stereo not shown) [7d]
- IC50 (TDP1 [2]): 25.2 ± 6.5 µM

Structure (SMILES): CC(=O)C1=C(O)C=C2Oc3c(C(=O)CSc4ccccn4)c(O)c(C)c(O)c3[C@@]2(C)C1=O [7i, (2R)-4-acetyl-5,11,13-trihydroxy-2,12-dimethyl-10-[2-(pyridin-2-ylsulfanyl)acetyl]-8-oxatricyclo[7.4.0. 0^2,7]trideca-1(13),4,6,9,11-pentaen-3-one]
- IC50 (TDP1 [2]): 11.9 ± 0.4 µM

Structure (SMILES): CC(=O)c1c(O)c(C)c(O)c2c1OC1=CC(=O)/C(=C(/C)NCCCc3cc(C(C)(C)C)c(O)c(C(C)(C)C)c3)C(=O)[C@@]12C [compound 2]
- IC50 (TDP1 [6]): 0.16 µM

Structure (SMILES): CC(=O)C1=C(O)C=C2Oc3c(C(=O)CSC#N)c(O)c(C)c(O)c3[C@@]2(C)C1=O [compound 5]
- IC50 (TDP1 [6]): 1.16 µM

Structure (SMILES): CC(=O)C1=C(O)C=C2Oc3c4c(c(C)c(O)c3[C@@]2(C)C1=O)O/C(=C\c1ccc(Br)cc1)C4=O [compound 3]
- IC50 (TDP1 [6]): 0.15 µM

Structure (SMILES): CC(=O)C1=C(O)C=C2Oc3c(C(=O)CSc4nc5ccccc5[nH]4)c(O)c(C)c(O)c3[C@@]2(C)C1=O [7f, (2R)-4-acetyl-10-[2-(1H-1,3-benzodiazol-2-ylsulfanyl)acetyl]-5,11,13-trihydroxy-2,12-dimethyl-8-oxatricyclo[7.4.0.0^2,7]trideca-1(13),4,6,9,11-pentaen-3-one]
- CC50 at 3 days [1]: 10 ± 2 µM
- IC50 (TDP1 [2]): 2.4 ± 1 µM
- CC50 at 3 days [3]: 13 µM
- CC50 at 3 days [4]: > 50 µM

— publication PMC8583042, “New Hybrid Compounds Combining Fragments of Usnic Acid and Thioether Are Inhibitors of Human Enzymes TDP1, TDP2 and PARP1” (International Journal of Molecular Sciences, 2021)
